Experimental data: patent US20210223252A1, “METHODS FOR PROTEOMIC PROFILING USING NON-NATURAL AMINO ACIDS” (California Institute of Technology, priority 2004, published 2021)

Columns and labels:
HEK293 cells [1] = test: Ubiquitin signal on Western blot of whole lysates (protein degradation); assay type: cell-based; details: treated two hours
Procedure: (§1) To show the specificity of this technique for the detection of newly synthesized proteins, HEK293 cells were incubated for 2 hrs with AHA in the presence or absence of a protein synthesis inhibitor (Anisomycin or Cycloheximide). After incubation, cells were lysed and subjected to [3+2]cycloaddition with the biotin-bearing alkyne-linker Biotin-PEO-Propargylamide, followed by Western blot analysis with an anti-Biotin-antibody. […] The potential for increased protein degradation was measured by examining the ubiquitin signal strength on a Western blot from whole lysates of HEK293 cells, which were treated with AHA, methionine or incubation buffer for two hours.

[2] = test system: E. coli and mammalian cells; test: Protein degradation upon introduction of AHA; assay type: cell-based; details: studies in E. coli and experiments in mammalian cells
[3] = test system: dissociated hippocampal neurons; test: AHA toxicity by whole neuron morphology (GFP reporter); assay type: cell-based, rat; details: 2 hrs incubation
Procedure: Dissociated hippocampal neuron cultures were prepared from newborn rat pups (PO) as outlined in (Banker and Goslin, 1990), Neurons were plated at a density of 15,000-45,000 cells/cm^2 onto poly-D-lysine coated cell culture dishes or onto poly-D-lysine and growth factor reduced matrigel (BD Biosciences) coated polycarbonate nets with a pore size of 3 (Transwell, Corning) for the preparation of isolated dendrites. The cultures were maintained and allowed to mature in growth medium (Neurobasal-A supplemented with B27 and GlutaMAX-1) for 14 to 21 days before use. The use of this growth medium suppressed glial proliferation, which was even more reduced by application of Ara-C (5 μM final concentration). To supplement glial neurotrophic factors, 25% conditioned growth media from glial and cortical cultures were added to the growth media. Isolated dendrites were obtained from Transwell cultures by removing the cell body layer with a sterile cell lifter after change to HBS. For immunolabeling after AHA-incorporation and cycloaddition with BiotinCyclooctyne, neurons are fixed at room temperature with 4% paraformaldehyde for 20 minutes. […] Images are recorded through standard emission filters at contrast settings for which the crossover between the two channels is negligible. […]

HEK293 cells [4] = test: Detection of newly synthesized proteins: AHA labelling, [3+2]cycloaddition with Biotin-PEO-Propargylamide, anti-Biotin Western blot; assay type: cell-based; details: HEK293 cells incubated 2 hrs with AHA in the presence of the protein synthesis inhibitor
Procedure: In embodiments using [3+2] Cycloaddition, the following exemplary protocol may be used. Briefly, AHA, Biotin-PEO-Propargylamide and the triazole ligand were prepared as described previously. The tandem featured alkyne tag was synthesized by GenScript Corporation. Biotin-Cyclooctyne is a generous gift from Carolyn Bertozzi. DIO-L-leucine was purchased from Sigma. In all culture experiments, growth medium was removed from HEK293 cells, whole neuronal cultures or isolated dendrites were replaced with HEPES-buffered solution (HBS) with 2.86 mM AHA, and 2.86 mM methionine for control experiments. After incubation at 37° C., 5% CO2, cells were washed with PBS-MC (1 mMMgCl2, 0.1 mM CaCl2 in PBS) to remove excess amounts of AHA and methionine. SNS and other biochemical fractions are incubated with 2.86 mM AHA or 2.86 mM methionine under agitation at 37° C. and washed in StimBuffer after incubation. […]
as §1, with “Cycloheximide).” for “Cycloheximide). After incubation, cells were lysed and subjected to [3+2]cycloaddition with the biotin-bearing alkyne-linker Biotin-PEO-Propargylamide, followed by Western blot analysis with an anti-Biotin-antibody.”

SMILES	ubiquitination compared to buffer or methionine controls (HEK293 cells [1])	increased protein degradation [2]	gross morphology of neurons compared to methionine controls ([3]; 12 DIV neurons expressing GFP reporter)	toxicity to neurons ([3]; primary/dissociated hippocampal neuronal cultures, equimolar AHA or methionine control)	anti-Biotin Western blot signal of AHA-labelled newly synthesized proteins (HEK293 cells [4])
[N-]=[N+]=NCC[C@H](N)C(=O)O [AHA, azidohomoalanine]	No increased ubiquitination	no evidence of increased protein degradation	no change in the gross morphology	not toxic	–
COc1ccc(C[C@H]2NC[C@H](O)[C@H]2OC(C)=O)cc1 [Anisomycin]	–	–	–	–	No signal was detected
C[C@@H]1C[C@@H]([C@H](O)CC2CC(=O)NC(=O)C2)C(=O)[C@@H](C)C1 [Cycloheximide]	–	–	–	–	No signal was detected
